Where two headings read alike, the source gives them in different places.
Legend:
[1] = target: EGFR (mutated) 695-1022, T790M, C797S, L858R (Homo sapiens (Human), UniProt P00533, C797S/L858R/T790M); assay: Biochemical EGFR inhibition assay (TR-FRET, poly-GT substrate), EGFR T790M C797S L858R
Description: (§1) Biochemical EGFR Inhibition Assays
(§2) Initially, the inhibitory effect of compounds according to the invention is measured in biochemical assays which measure the phosphorylation activity of EGFR enzyme forms on poly-GT substrate in the presence of different concentrations of ATP (5 μM and 100 μM final assay concentration).
(§3) The following enzyme forms of EGFR are representative examples that can be used in these assays at the given concentrations:
(§4) For the chosen highest assay concentration of 100 μM, 150 nL of compound solution is transferred from a 10 mM DMSO compound stock solution. A series of eleven fivefold dilutions per compound is transferred to the assay plate, compound dilutions are tested in duplicates. DMSO is added as backfill to a total volume of 150 nL. The assay runs on a fully automated robotic system.
(§5) These biochemical EGFR enzyme form compound dose-response assays quantify the kinase activity via phosphorylation of a tagged poly-GT substrate. The results of the assay are provided as IC50 values.

EGFR wt = EGFR wt (Homo sapiens (Human), UniProt P00533); assay: Biochemical EGFR inhibition assay (TR-FRET, poly-GT substrate), EGFR wt
Description: as §1, §2, §3, §4, §5

[2] = target: EGFR del19 T790M C797S protein in Ba/F3 cells (Homo sapiens, UniProt P00533, C797S/DEL746-750/T790M); assay: pEGFR assay (AlphaScreen Surefire, EGFR Tyr1068 phosphorylation); assay type: cell-based
Description: Transduced cells were selected using puromycin. Following selection, IL-3 was withdrawn and IL-3 independent cells cultured. p-EGFR Tyr1068 was determined using the AlphaScreen Surefire pEGF Receptor (Tyr1068) Assay (PerkinElmer, TGRERS). […] Subsequently, 60.000 cells/well in 60 μL were added. Cells were incubated with compound for 4 h at 37° C. […] The mixture was incubated at room temperature with shaking (700 rpm) for 20 min. After centrifugation, 4 μL of the lysate were transferred to Proxiplates. […] Plates were shaken for 1 min (1400 rpm) and incubated for 2 h at room temperature in the dark.
The results of the assay are provided as IC50 values (see table 12).

[3] = read-out: LR_TM_CS (5 μM ATP) IC50, 5 μM ATP
[4] = read-out: wt (5 μM ATP) IC50, 5 μM ATP
[5] = read-out: LR_TM_CS (100 μM ATP) IC50, 100 μM ATP
[6] = read-out: wt (100 μM ATP) IC50, 100 μM ATP

Sequence of EGFR (mutated) 695-1022, T790M, C797S, L858R (P00533 695-1022 T790M/C797S/L858R): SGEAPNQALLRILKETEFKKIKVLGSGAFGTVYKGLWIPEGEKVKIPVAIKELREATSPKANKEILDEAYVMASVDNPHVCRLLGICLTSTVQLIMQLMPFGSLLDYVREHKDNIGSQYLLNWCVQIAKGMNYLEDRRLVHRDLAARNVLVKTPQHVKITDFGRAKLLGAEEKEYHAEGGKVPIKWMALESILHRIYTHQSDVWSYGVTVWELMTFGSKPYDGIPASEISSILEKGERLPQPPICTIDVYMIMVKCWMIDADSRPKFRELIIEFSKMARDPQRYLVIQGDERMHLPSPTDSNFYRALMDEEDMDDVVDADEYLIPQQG
Sequence of EGFR wt (P00533 25-1210): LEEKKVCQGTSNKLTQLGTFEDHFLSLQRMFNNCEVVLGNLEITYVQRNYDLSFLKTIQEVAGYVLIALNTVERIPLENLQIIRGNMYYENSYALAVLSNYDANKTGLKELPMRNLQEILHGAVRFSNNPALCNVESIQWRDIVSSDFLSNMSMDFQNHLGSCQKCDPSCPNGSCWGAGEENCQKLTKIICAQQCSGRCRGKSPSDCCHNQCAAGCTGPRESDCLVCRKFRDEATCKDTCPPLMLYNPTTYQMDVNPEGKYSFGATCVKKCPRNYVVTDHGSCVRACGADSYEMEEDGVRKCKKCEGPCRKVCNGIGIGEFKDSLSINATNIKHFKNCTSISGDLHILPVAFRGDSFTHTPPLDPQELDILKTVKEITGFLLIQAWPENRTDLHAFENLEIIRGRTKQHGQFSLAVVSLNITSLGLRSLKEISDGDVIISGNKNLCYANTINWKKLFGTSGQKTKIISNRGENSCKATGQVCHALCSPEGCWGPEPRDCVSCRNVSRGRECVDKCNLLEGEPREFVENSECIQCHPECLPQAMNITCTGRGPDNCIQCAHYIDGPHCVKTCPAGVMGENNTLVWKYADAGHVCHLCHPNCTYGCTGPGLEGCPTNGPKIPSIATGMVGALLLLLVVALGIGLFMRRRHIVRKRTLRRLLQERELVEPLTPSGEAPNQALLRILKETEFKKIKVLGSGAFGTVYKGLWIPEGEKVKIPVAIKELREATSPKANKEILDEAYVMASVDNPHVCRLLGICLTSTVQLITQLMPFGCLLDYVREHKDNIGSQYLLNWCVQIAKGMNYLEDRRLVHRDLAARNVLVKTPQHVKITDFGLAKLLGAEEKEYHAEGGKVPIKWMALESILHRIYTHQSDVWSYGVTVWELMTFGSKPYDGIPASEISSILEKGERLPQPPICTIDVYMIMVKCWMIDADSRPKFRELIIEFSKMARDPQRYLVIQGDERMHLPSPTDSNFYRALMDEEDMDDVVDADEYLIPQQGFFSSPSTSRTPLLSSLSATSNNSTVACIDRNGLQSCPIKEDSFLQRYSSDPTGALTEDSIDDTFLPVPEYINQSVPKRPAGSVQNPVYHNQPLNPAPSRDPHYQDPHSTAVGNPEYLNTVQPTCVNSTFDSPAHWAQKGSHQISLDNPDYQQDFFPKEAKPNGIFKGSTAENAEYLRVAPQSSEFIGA
Sequence of EGFR del19 T790M C797S protein in Ba/F3 cells (P00533 with tags, fused parts or gaps C797S/DEL746-750/T790M limits assumed): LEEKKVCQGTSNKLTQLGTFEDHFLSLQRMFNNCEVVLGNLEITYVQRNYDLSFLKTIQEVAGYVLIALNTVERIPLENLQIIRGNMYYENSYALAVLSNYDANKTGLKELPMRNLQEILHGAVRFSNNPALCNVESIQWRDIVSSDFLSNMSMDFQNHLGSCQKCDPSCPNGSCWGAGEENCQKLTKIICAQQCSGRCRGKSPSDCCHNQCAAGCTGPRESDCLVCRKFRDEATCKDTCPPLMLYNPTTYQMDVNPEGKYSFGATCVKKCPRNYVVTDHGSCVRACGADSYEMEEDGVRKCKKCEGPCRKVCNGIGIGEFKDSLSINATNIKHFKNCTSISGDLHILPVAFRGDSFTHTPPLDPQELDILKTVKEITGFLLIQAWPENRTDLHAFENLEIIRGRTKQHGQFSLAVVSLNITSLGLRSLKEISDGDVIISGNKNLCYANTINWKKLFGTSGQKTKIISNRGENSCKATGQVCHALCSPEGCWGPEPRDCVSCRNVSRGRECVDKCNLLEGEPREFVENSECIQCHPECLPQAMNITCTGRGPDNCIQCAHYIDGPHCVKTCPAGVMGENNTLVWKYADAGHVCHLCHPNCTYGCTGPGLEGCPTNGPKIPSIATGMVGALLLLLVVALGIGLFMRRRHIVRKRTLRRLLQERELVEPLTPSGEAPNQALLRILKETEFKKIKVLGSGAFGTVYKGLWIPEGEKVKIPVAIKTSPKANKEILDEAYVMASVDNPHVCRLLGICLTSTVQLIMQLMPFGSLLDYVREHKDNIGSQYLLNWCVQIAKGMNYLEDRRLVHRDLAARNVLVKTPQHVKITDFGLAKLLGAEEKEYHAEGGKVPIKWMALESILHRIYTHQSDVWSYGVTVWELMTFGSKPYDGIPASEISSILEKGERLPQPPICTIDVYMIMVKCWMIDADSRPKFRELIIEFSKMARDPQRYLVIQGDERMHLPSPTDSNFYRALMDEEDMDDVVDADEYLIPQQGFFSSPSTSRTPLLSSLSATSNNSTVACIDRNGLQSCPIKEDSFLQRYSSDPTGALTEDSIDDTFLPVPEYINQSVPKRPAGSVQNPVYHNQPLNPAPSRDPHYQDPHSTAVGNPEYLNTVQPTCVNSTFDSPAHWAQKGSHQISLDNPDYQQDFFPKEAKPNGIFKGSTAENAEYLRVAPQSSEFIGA

COc1ccncc1-c1cc(C(=O)/N=c2\[nH]c3ccccc3n2[C@H]2CC[C@@H](O)CC2)cc(C#N)n1 [I-167]
IC50 [1, 3]: 4.6 nM
IC50 (EGFR wt; [4]): 995 nM
IC50 [2]: 7 nM

Cn1cc(-c2cc(C(=O)/N=c3\[nH]c4ccccc4n3[C@H]3CCC[C@@H](O)C3)ccn2)cn1 [I-126]
IC50 [1, 3]: 3.1 nM
IC50 (EGFR wt; [4]): 305 nM
IC50 [2]: 6 nM

COc1ccccc1-c1cc(C(=O)/N=c2\[nH]c3ccccc3n2[C@@H]2CC[C@H](O)[C@@H](O)C2)ccn1 [I-198]
IC50 [1, 3]: 7.7 nM
IC50 (EGFR wt; [4]): 77.1 nM
IC50 [2]: 18 nM

Cn1cc(-c2cc(C(=O)/N=c3\[nH]c4cc(C5CCN(C6CC6)CC5)ccc4n3CC(C)(C)O)ccn2)cn1 [I-042]
IC50 [1, 5]: 24.3 nM
IC50 (EGFR wt; [6]): 14600 nM
IC50 [2]: 3 nM

Cc1cc(C(=O)/N=c2\[nH]c3cc(CN4CCN(C)CC4)ccc3n2[C@H]2CCC[C@H](O)C2)cc(-c2cnn(C)c2)n1 [I-208]
IC50 [1, 3]: 5.4 nM
IC50 (EGFR wt; [4]): 7470 nM
IC50 [2]: 44 nM

O=C(/N=c1\[nH]c2ccccc2n1[C@H]1CC[C@@H](O)CC1)c1ccnc(-c2cccn3ncnc23)c1 [I-179]
IC50 [1, 3]: 33.8 nM
IC50 (EGFR wt; [4]): 3600 nM
IC50 [2]: 12 nM

COc1cc(F)ccc1-c1cc(C(=O)/N=c2\[nH]c3ccccc3n2[C@H]2CC[C@@H](O)CC2)ccn1 [I-169]
IC50 [1, 3]: 2.8 nM
IC50 (EGFR wt; [4]): 81.6 nM
IC50 [2]: 11 nM

O=C(/N=c1\[nH]c2ccccc2n1[C@H]1CC[C@@H](O)CC1)c1ccnc(-c2ccccc2)c1 [I-107]
IC50 [1, 3]: 1.8 nM
IC50 [1, 5]: 45.7 nM
IC50 (EGFR wt; [4]): 336 nM
IC50 (EGFR wt; [6]): > 100000 nM
IC50 [2]: 4 nM

Cn1cc(-c2cc(C(=O)/N=c3\[nH]c4ccccc4n3C3CCCS(=O)(=O)C3)ccn2)cn1 (stereo not shown) [I-212]
IC50 [1, 3]: 2.5 nM
IC50 (EGFR wt; [4]): 318 nM
IC50 [2]: 22 nM

COc1ccccc1-c1cc(C(=O)/N=c2\[nH]c3ccccc3n2[C@H]2CC[C@H](O)[C@H](O)C2)ccn1 [I-149]
IC50 [1, 3]: 8.5 nM
IC50 (EGFR wt; [4]): 148 nM
IC50 [2]: 4 nM

O=C(/N=c1\[nH]c2ccccc2n1[C@H]1CC[C@@H](O)CC1)c1ccnc(-c2cnn3cccnc23)c1 [I-115]
IC50 [1, 5]: 5.8 nM
IC50 (EGFR wt; [6]): 2420 nM
IC50 [2]: 1 nM

Cn1cc(-c2cc(C(=O)/N=c3\[nH]c4cc(CN5CCOCC5)ccc4n3[C@H]3CC[C@@H](O)CC3)cc(C#N)n2)cn1 [I-145]
IC50 [1, 3]: 1.7 nM
IC50 (EGFR wt; [4]): 397 nM
IC50 [2]: 3 nM

COc1ccncc1-c1cc(C(=O)/N=c2\[nH]c3ccccc3n2CC(C)(C)O)ccn1 [I-018]
IC50 [1, 5]: 11.9 nM
IC50 (EGFR wt; [6]): 10000 nM
IC50 [2]: 1 nM

Cn1cc(-c2cc(C(=O)/N=c3\[nH]c4ccccc4n3[C@H]3COC[C@H](O)C3)ccn2)cn1 [I-168]
IC50 [1, 3]: 5 nM
IC50 (EGFR wt; [4]): 1270 nM
IC50 [2]: 10 nM

Cc1cc(C(=O)/N=c2\[nH]c3ccccc3n2[C@H]2CCC[C@H](O)C2)cc(-c2cnn(C)c2)n1 [I-204]
IC50 [1, 3]: 26.2 nM
IC50 (EGFR wt; [4]): 9290 nM
IC50 [2]: 6 nM

Cc1cc(C(=O)/N=c2\[nH]c3ccccc3n2C2CCCS(=O)(=O)C2)cc(-c2cnn(C)c2)n1 (stereo not shown) [I-217]
IC50 [1, 3]: 33 nM
IC50 (EGFR wt; [4]): > 100000 nM
IC50 [2]: 75 nM

Cn1cc(-c2cc(C(=O)/N=c3\[nH]c4ccccc4n3[C@H]3CCC[C@@H](O)C3)ccn2)cn1 [I-112]
IC50 [1, 3]: 3.1 nM
IC50 (EGFR wt; [4]): 777 nM
IC50 [2]: 13 nM

COc1ccccc1-c1cc(C(=O)/N=c2\[nH]c3cc(C4CCN(C(C)=O)C4)ccc3n2CC(C)(C)O)ccn1 (stereo not shown) [I-158]
IC50 [1, 3]: 1.5 nM
IC50 (EGFR wt; [4]): 56.3 nM
IC50 [2]: 6 nM

Cn1cc(-c2cc(C(=O)/N=c3\[nH]c4ccccc4n3[C@H]3COC[C@@H](O)C3)ccn2)cn1 [I-191]
IC50 [1, 3]: 7.4 nM
IC50 (EGFR wt; [4]): 1660 nM
IC50 [2]: 44 nM

Cc1cc(C(=O)/N=c2\[nH]c3cc(CN4CCOCC4)ccc3n2[C@H]2CCC[C@H](O)C2)cc(-c2cnn(C)c2)n1 [I-209]
IC50 [1, 3]: 8.1 nM
IC50 (EGFR wt; [4]): 5800 nM
IC50 [2]: 14 nM

COc1ccccc1-c1cc(C(=O)/N=c2\[nH]c3ccccc3n2[C@@H]2CC[C@H](O)[C@H](O)C2)ccn1 [I-144]
IC50 [1, 3]: 6.9 nM
IC50 (EGFR wt; [4]): 110 nM
IC50 [2]: 3 nM

Cn1cc(-c2cc(C(=O)/N=c3\[nH]c4ccccc4n3[C@@H]3CCC[C@H](O)C3)ccn2)cn1 [I-128]
IC50 [1, 3]: 4 nM
IC50 (EGFR wt; [4]): 1130 nM
IC50 [2]: 7 nM

COc1ncccc1-c1cc(C(=O)/N=c2\[nH]c3ccccc3n2CC(C)(C)O)ccn1 [I-92]
IC50 [2]: 20 nM

COc1ccccc1-c1cc(C(=O)/N=c2\[nH]c3ccccc3n2[C@@H]2CC[C@@H](O)[C@@H](O)C2)ccn1 [I-234]
IC50 [2]: 4 nM

Cn1cc(-c2cc(C(=O)/N=c3\[nH]c4cc(N5CCOC(C)(C)C5)ccc4n3CC(C)(C)O)ccn2)cn1 [I-75]
IC50 [2]: 54 nM

Cn1cc(-c2cc(C(=O)/N=c3\[nH]c4cc(C5CCOC5)ccc4n3CC(C)(C)O)ccn2)cn1 (stereo not shown) [I-86]
IC50 [2]: 5 nM

COc1ccccc1-c1cc(C(=O)/N=c2\[nH]c3cc(C4CCNCC4)ccc3n2[C@H]2CC[C@@H](O)CC2)ccn1 [I-120]
IC50 [2]: 3 nM

CC(C)c1ccc2c(c1)[nH]/c(=N\C(=O)c1ccnc(-c3cnn(C)c3)c1)n2CC(C)(C)O [I-062]
IC50 [2]: 9 nM

CN(C)CCNc1ccc2c(c1)[nH]/c(=N\C(=O)c1ccnc(-c3cnn(C)c3)c1)n2CC(C)(C)O [I-82]
IC50 [2]: 14 nM

COc1ccccc1-c1cc(C(=O)/N=c2\[nH]c3cc(CN4CCCC(OC)C4)ccc3n2[C@H]2CC[C@@H](O)CC2)ccn1 (stereo partly shown) [I-153]
IC50 [2]: 4 nM

CC(C)(O)Cn1/c(=N/C(=O)c2ccnc(-c3ccccn3)c2)[nH]c2ccccc21 [I-106]
IC50 [2]: 97 nM

Cn1cc(-c2cc(C(=O)/N=c3\[nH]c4cc(C5CCNCC5)ccc4n3[C@H]3CC[C@@H](O)CC3)ccn2)cn1 [I-218]
IC50 [2]: 18 nM

CC(C)(O)Cn1/c(=N/C(=O)c2ccnc(-c3cnccc3Cl)c2)[nH]c2ccccc21 [I-027]
IC50 [2]: 55 nM

COc1ccccc1-c1cc(C(=O)/N=c2\[nH]c3ccccc3n2[C@H]2CCCC[C@H]2O)ccn1 [I-186]
IC50 [2]: 23 nM

CC(C)(O)Cn1/c(=N/C(=O)c2ccnc(-c3cccc4ccoc34)c2)[nH]c2ccccc21 [I-98]
IC50 [2]: 6 nM

COCCCNc1cc2[nH]/c(=N\C(=O)c3ccnc(-c4cnn(C)c4)c3)n(CC(C)(C)O)c2cc1C [I-71]
IC50 [2]: 86 nM

COc1cnccc1-c1cc(C(=O)/N=c2\[nH]c3ccccc3n2[C@H]2CC[C@@H](O)CC2)ccn1 [I-147]
IC50 [2]: 4 nM

CN1CCN(c2ccc3[nH]/c(=N\C(=O)c4cc(F)nc(-c5cnn(C)c5)c4)n(C4CCCCC4)c3c2)CC1 [I-232]
IC50 [2]: 1 nM

COc1ccccc1-c1cc(C(=O)/N=c2\[nH]c3cc(CN4CCCCC4)ccc3n2CC(C)(C)O)ccn1 [I-059]
IC50 [2]: 3 nM

O=C(/N=c1\[nH]c2ccccc2n1[C@H]1CC[C@@H](O)CC1)c1ccnc(-c2csc3ccccc23)c1 [I-96]
IC50 [2]: 39 nM

Cn1cc(-c2cc(C(=O)/N=c3\[nH]c4cc(F)ccc4n3CC(C)(C)O)ccn2)cn1 [I-194]
IC50 [2]: 74 nM

COCCN1CCC(c2ccc3c(c2)[nH]/c(=N\C(=O)c2ccnc(-c4cnn(C)c4C)c2)n3CC(C)(C)O)CC1 [I-045]
IC50 [2]: 2 nM

CN(C)c1ccc2c(c1)[nH]/c(=N\C(=O)c1ccnc(-c3cccnc3)c1)n2CC(C)(C)O [I-79]
IC50 [2]: 42 nM

COCCN1CCC(c2ccc3[nH]/c(=N\C(=O)c4cc(C)nc(-c5cnn(C)c5)c4)n(C4CCCCC4)c3c2)CC1 [I-229]
IC50 [2]: 23 nM

O=C(/N=c1\[nH]c2ccccc2n1[C@H]1CC[C@@H](O)CC1)c1ccnc(-c2ccccc2Cl)c1 [I-160]
IC50 [2]: 6 nM

Cn1cnc2c(-c3cc(C(=O)/N=c4\[nH]c5ccccc5n4[C@H]4CC[C@@H](O)CC4)ccn3)cccc21 [I-182]
IC50 [2]: 15 nM

CC(C)(O)Cn1/c(=N/C(=O)c2ccnc(-n3ccc4cccnc43)c2)[nH]c2ccccc21 [I-188]
IC50 [2]: 30 nM

O=C(/N=c1\[nH]c2ccccc2n1[C@H]1CC[C@@H](O)CC1)c1ccnc(-c2cccc3ccnn23)c1 [I-89]
IC50 [2]: 8 nM

O=C(/N=c1\[nH]c2ccccc2n1[C@H]1CC[C@@H](O)CC1)c1ccnc(-c2ccc(F)cc2)c1 [I-177]
IC50 [2]: 12 nM

Cn1cc(-c2cc(C(=O)/N=c3\[nH]c4cc(NCCN5CCCC5)ccc4n3CC(C)(C)O)ccn2)cn1 [I-83]
IC50 [2]: 14 nM

COc1ncccc1-c1cc(C(=O)/N=c2\[nH]c3ccccc3n2[C@H]2CC[C@@H](O)CC2)ccn1 [I-173]
IC50 [2]: 9 nM

Cn1cc(-c2cc(C(=O)/N=c3\[nH]c4cc(CCC(C)(C)O)ccc4n3CC(C)(C)O)ccn2)cn1 [I-178]
IC50 [2]: 12 nM

O=C(/N=c1\[nH]c2ccccc2n1[C@H]1CC[C@@H](O)CC1)c1ccnc(-c2coc3ccccc23)c1 [I-174]
IC50 [2]: 9 nM

CC(C)(O)Cn1/c(=N/C(=O)c2ccnc(-c3cnc4cccnn34)c2)[nH]c2ccccc21 [I-041]
IC50 [2]: 1 nM
